± gives the expanded uncertainty stated by the source.
Conditions: Fluid (supercritical or subcritical phases), Coaxial cylinder method

CCCCCC [hexane]
Conditions | thermal conductivity [W/m/K]
510.36 K, 3230 kPa | 0.07155 ± 0.0034
510.36 K, 3232 kPa | 0.07138 ± 0.0034
510.36 K, 3234 kPa | 0.07128 ± 0.0034
510.36 K, 3236 kPa | 0.07122 ± 0.0033
510.36 K, 3238 kPa | 0.07122 ± 0.0033
510.36 K, 3242 kPa | 0.07105 ± 0.0033
510.36 K, 3245 kPa | 0.07105 ± 0.0033
510.36 K, 3248 kPa | 0.07105 ± 0.0033
510.36 K, 3250 kPa | 0.07072 ± 0.0033
510.36 K, 3252 kPa | 0.07072 ± 0.0033
510.36 K, 3254 kPa | 0.07072 ± 0.0033
510.36 K, 3256 kPa | 0.07039 ± 0.0033
510.36 K, 3258 kPa | 0.07039 ± 0.0033
510.36 K, 3260 kPa | 0.07039 ± 0.0033
510.36 K, 3265 kPa | 0.0704 ± 0.0033
510.36 K, 3270 kPa | 0.07008 ± 0.0033
510.36 K, 3280 kPa | 0.06975 ± 0.0033
510.36 K, 3290 kPa | 0.0696 ± 0.0033
510.36 K, 3300 kPa | 0.06944 ± 0.0033
510.36 K, 3310 kPa | 0.06944 ± 0.0033
510.36 K, 3320 kPa | 0.06912 ± 0.0032
510.36 K, 3340 kPa | 0.06881 ± 0.0032
510.36 K, 3350 kPa | 0.0685 ± 0.0032
510.36 K, 3360 kPa | 0.0685 ± 0.0032
510.36 K, 3370 kPa | 0.0685 ± 0.0032
510.36 K, 3380 kPa | 0.0685 ± 0.0032
510.36 K, 3392 kPa | 0.06834 ± 0.0032
510.36 K, 3450 kPa | 0.06819 ± 0.0032
510.36 K, 3500 kPa | 0.0685 ± 0.0032
510.36 K, 3520 kPa | 0.0686 ± 0.0032
510.36 K, 3540 kPa | 0.0686 ± 0.0032
510.36 K, 3560 kPa | 0.0686 ± 0.0032
510.36 K, 3580 kPa | 0.0686 ± 0.0032
510.36 K, 3600 kPa | 0.06851 ± 0.0032
510.36 K, 3620 kPa | 0.06851 ± 0.0032
510.36 K, 3640 kPa | 0.06854 ± 0.0032
510.36 K, 3650 kPa | 0.06857 ± 0.0032
510.36 K, 3670 kPa | 0.0686 ± 0.0032
510.36 K, 3680 kPa | 0.06861 ± 0.0032
510.36 K, 3700 kPa | 0.06864 ± 0.0032
510.36 K, 3720 kPa | 0.06873 ± 0.0032
510.36 K, 3740 kPa | 0.06883 ± 0.0032
510.36 K, 3750 kPa | 0.06886 ± 0.0032
510.36 K, 3800 kPa | 0.06913 ± 0.0032
510.36 K, 3810 kPa | 0.06917 ± 0.0032
510.36 K, 3820 kPa | 0.06922 ± 0.0032
510.36 K, 3830 kPa | 0.06922 ± 0.0032
510.36 K, 3840 kPa | 0.06919 ± 0.0032
510.36 K, 3860 kPa | 0.06928 ± 0.0032
510.36 K, 3970 kPa | 0.06973 ± 0.0033
510.36 K, 3980 kPa | 0.06964 ± 0.0033
510.36 K, 4010 kPa | 0.06977 ± 0.0033
511.55 K, 900 kPa | 0.03854 ± 0.002
511.55 K, 1000 kPa | 0.03823 ± 0.002
511.55 K, 1100 kPa | 0.03832 ± 0.002
511.55 K, 1200 kPa | 0.03859 ± 0.002
511.55 K, 1300 kPa | 0.03877 ± 0.002
511.55 K, 1400 kPa | 0.03895 ± 0.002
511.55 K, 1500 kPa | 0.03914 ± 0.002
511.55 K, 1600 kPa | 0.03932 ± 0.002
511.55 K, 1700 kPa | 0.0397 ± 0.002
511.55 K, 1800 kPa | 0.04008 ± 0.0021
511.55 K, 1900 kPa | 0.04047 ± 0.0021
511.55 K, 2000 kPa | 0.04087 ± 0.0021
511.55 K, 2100 kPa | 0.04127 ± 0.0021
511.55 K, 2200 kPa | 0.0419 ± 0.0021
511.55 K, 2300 kPa | 0.04254 ± 0.0022
511.55 K, 2400 kPa | 0.04342 ± 0.0022
511.55 K, 2462 kPa | 0.04388 ± 0.0022
511.55 K, 2466 kPa | 0.04388 ± 0.0022
511.55 K, 2500 kPa | 0.04434 ± 0.0022
511.55 K, 2600 kPa | 0.0453 ± 0.0023
511.55 K, 2700 kPa | 0.04656 ± 0.0023
511.55 K, 2800 kPa | 0.04846 ± 0.0024
511.55 K, 2900 kPa | 0.05075 ± 0.0025
511.55 K, 2973 kPa | 0.05292 ± 0.0026
511.55 K, 2988 kPa | 0.05356 ± 0.0026
511.55 K, 3050 kPa | 0.05558 ± 0.0027
511.55 K, 3065 kPa | 0.05634 ± 0.0027
511.55 K, 3084 kPa | 0.05785 ± 0.0028
511.55 K, 3096 kPa | 0.05908 ± 0.0029
511.55 K, 3103 kPa | 0.05968 ± 0.0029

— the NIST ThermoML archive (doi:10.1016/j.fluid.2018.10.006)
